Experimental data taken from patent US8173843B2, “Amphiphilic derivatives of α-C-phenyl-N-tert-butylnitrone” (TS Pharma, priority 2006, dated 2012).

Columns and labels:
[1] = system: Sprague-Dawley rat embryo cortex cell cultures; assay: Hydrogen peroxide-induced apoptotic cell death, viability of cortex cell cultures; type: cell-based; settings: compound at 10 μM; hydrogen peroxide 50 to 200 μM; preliminary results
Method: (§1) The biological tests were carried out according to the procedures described in Journal of Neurochemistry, 2005, 95, 962-973. In order to evaluate the potentialities of these novel derivatives, we measured the ability of compound 10 to reduce and prevent apoptotic cell death phenomena. Hydrogen peroxide is very widely used as an apoptosis inducer in many cell models. Thus, the viability of Sprague-Dawley rat embryo cortex cell cultures is greatly impaired after treatment with hydrogen peroxide at concentrations of 50 to 200 μM. […] These same cultures were also subjected to a mitochondria-selective oxidative stress inducer, doxorubicin (Kotamraju S.; Konorev E. A.; Joseph J.; Kalyanaraman B. J. Biol. Chem. 2000, 275, 33 585-33 592). The observations are the same as for the induction with hydrogen peroxide. […] These preliminary results underline the great ability of compound 10 to prevent apoptosis phenomena induced at varying cell levels. […] A dysfunction of the mitochondrion, the central organelle in the control of apoptosis is involved in a very wide variety of pathological conditions. The anti-apoptotic properties of derivative 10 combined with its incorporation into the mitochondrion make it possible to envision its use in the fields mentioned above.

[2] = system: Sprague-Dawley rat embryo cortex cell cultures; assay: Doxorubicin (mitochondria-selective oxidative stress inducer)-induced cell death, viability of cortex cell cultures; type: cell-based; settings: doxorubicin-induced mitochondrial oxidative stress; preliminary results
Method: as §1

[3] = oxidative aging tests; Poeggeler et al. 2005; cited from earlier work
[4] = literature; cited from earlier work
gerbils = settings: after injection in gerbils; Oliver et al. 1990; cited from earlier work

| Compound | restoration of viability of cultures after hydrogen peroxide treatment [1] | protection against cell death / cell viability under doxorubicin [2] | biological activity compared with PBN [3] | neuroprotective activity compared with PBN [4] | damage caused by cerebral ischemia (gerbils) |
| --- | --- | --- | --- | --- | --- |
| CCCCCCCC(=O)NCc1ccc(/C=[N+](\[O-])C(C)(C)CNC(=O)C(O)[C@H](O)[C@H](O[C@@H]2OC(CO)[C@H](O)C(O)C2O)C(O)CO)cc1 (stereo partly shown) [Compound 10] | completely restore the viability | allows the cell viability to be completely maintained |  |  |  |
| CCCCCCCC(=O)NCC(C)(C)[N+]([O-])=Cc1ccc(CNC(=O)[C@H](OC(C)=O)[C@@H](OC(C)=O)[C@H](O[C@@H]2O[C@H](COC(C)=O)[C@H](OC(C)=O)[C@H](OC(C)=O)[C@H]2OC(C)=O)[C@@H](COC(C)=O)OC(C)=O)cc1 [LPBNAH, N-[4-(octa-O-acetyllactobionamidomethylene)benzylidene]-N-[1,1-dimethyl-2-(N-octanoyl)amido]ethylamine N-oxide] |  |  | biological activity greater than that of PBN |  |  |
| CC(C)(C)[N+]([O-])=Cc1ccc(S(=O)(=O)[O-])cc1S(=O)(=O)[O-].[Na+].[Na+] [NXY-059] |  |  |  | neuroprotective activity greater than PBN |  |
| CC(C)(C)[N+]([O-])=Cc1ccccc1 [PBN, α-C-phenyl-N-tert-butylnitrone] | very incompletely restore the viability | only a partial protection against cell death |  |  | decrease in the damage caused by cerebral ischemia |
